For 60 compounds, melting point results are on record in a melting point compilation (Tetko et al.; mined from patent text by program, amines drawn as free bases though some values may be those of a salt).

Broadly, the melting point is the temperature, or range, at which the solid turns liquid.

Structures are written as SMILES. Where only a bound is given, the exact number is not on record here.

In the case of `N=C(N)c1ccc(-c2ccc(N3CCN(CCC(=O)O)S3(=O)=O)cc2)cc1`, the melting point was greater than 260 °C. For the compound `Cc1[nH]c(=O)n(-c2cc(C(=O)OC(C)C)c(Cl)cc2F)c(=O)c1SC#N`, the melting point is 159 to 161 °C. Next, `CN1CCC(Oc2ccccc2N)(c2ccccc2)CC1`: 129 to 130 °C; `C=C(c1c(C)n(CC)c2ccccc12)c1c(C)n(CC)c2ccccc12`: 179 to 182 °C; `CCCCCCC(=O)Oc1ccc(-c2ccc(C#N)cc2)cc1`: 57.7 to 57.9 °C. In the case of `CN1CN(c2ccccc2)c2ncccc2C1=O` it was 140 to 141 °C; in that of `CCSc1ccc([N+](=O)[O-])c(N)c1`, 75 to 76 °C.

Compound `Cc1ccnc(-c2cccc(Oc3ccccc3C)n2)n1` yielded a melting point of 121 °C. Compound `CCOC1=C(C#N)C(c2ccccc2)=C2C(=O)N(CC)C(c3ccccc3)=C12` came in with a melting point of 200 to 202 °C. Next, `COc1ccc(CCCN(CCCc2ccc(OC)c(OC)c2)C(=O)N(C)O)cc1OC`: 93 to 94 °C; `Cc1nc(-c2ccc([N+](=O)[O-])cc2)sc1C(=O)O`: 252 to 253 °C; `COc1ccc(Cn2c(=O)[nH]c3cc(Cl)ccc3c2=O)cc1`: 254 to 256 °C.

For `CN1CCC(c2nn(-c3ccc(N)cc3)c3ccccc23)CC1`, the melting point was 116 to 118 °C. `COCc1ccc(N)c(O)c1`: the melting point is 108 °C. Next, `CN1CC=C(c2c[nH]c3ccc(NS(=O)(=O)N(C)C)cc23)CC1`: 207 to 208 °C. In turn, `O=C(Nc1cccnc1)N1CCN(c2cc(-c3cccc(F)c3F)ncn2)CC1` came in with a melting point of 179 to 180 °C. In the case of `CCOC(=O)C(=O)c1cn(Cc2ccccc2)c2cc(-c3ccc(C(F)(F)F)cc3)ccc12` it was 109 to 110 °C. Next, `O=[N+]([O-])c1c(C(F)(F)F)cc(OCc2ccccc2)cc1C(F)(F)F`: 141 to 143 °C.

For `Oc1c(Br)cc(-c2c3ccccc3c(I)c3sc4ccccc4c23)cc1Br`, the melting point lay within 221 to 222 °C. `CCCOc1ncc(S(C)(=O)=O)cc1-c1nc2c(CC)nn(C[C@@H]3CCCN3C(=O)OC(C)(C)C)c2c(=O)[nH]1` yielded a melting point of 98 to 104 °C. `NC(=O)CNS(=O)(=O)c1ccc(CCN2CC=C(c3c[nH]cc3-c3ccncc3)CC2c2ccc(F)cc2)cc1` (stereo not given) registered a melting point of 230 to 233 °C. In the case of `CN1C(=O)[C@@H](NC(=O)OC(C)(C)C)COc2ccccc21` it was 152 °C; in that of `O=P(O)(O)Cc1ccc(-c2ccccc2)cc1`, 246 to 248 °C. `CC(=O)CN1CCc2ccc(C(=O)CCC(=O)N3CCC(c4ccc(Cl)cc4)CC3)cc2CC1` had a melting point of 119 to 120 °C.

Regarding `COc1ccc(-c2cnc(N3Cc4c([nH]c5ccccc5c4=O)C3C3Cc4ccccc4O3)nc2)cc1` (stereo not given), the melting point lay within 301 to 302 °C.

As to `COC(=O)C(C)(C)c1ccc(C(=O)Nc2cn3cc(-c4ccsc4)ccc3n2)cc1`, the melting point was 200 to 201 °C. In the case of `Cc1noc(C(=O)NC(C)(C)C)c1C(N)=O` it was 155 to 158 °C. Next, `COc1ccc(Cn2nc(COC(C)(C)C(=O)O)c3ccccc32)cc1`: 169 to 171 °C; `COc1cc(N2CCC(N3CCN(C)CC3)CC2)ccc1Nc1ncc2ccc(-c3cccc(S(=O)(=O)NC(C)(C)C)c3)n2n1`: 214 to 216 °C. Next, `CC(C)(C)OC(=O)N1CCc2c(n(CCO)c3c(Cl)ccc(Cl)c23)CC1`: 156 to 158 °C; `Nc1ncc(C2OC(CO)C(O)C2O)c(Cl)n1` (stereo not given): 195 to 197 °C. Consider `CCCCc1nc2cccc(C(=O)OC)c2n1Cc1ccc(-c2ccccc2C#N)cc1`, for which the melting point was in the range of 123 to 124 °C.

In turn, `COC(=O)C1=C(C)NC(C)=C(C(=O)OCC(O)CO)C1c1cccc([N+](=O)[O-])c1` (stereo not given) displayed a melting point of 49 to 53 °C.

With `Clc1cccnc1-c1cc(OCCc2ccccn2)c2[nH]nc(Nc3nccs3)c2c1`, the melting point was 185 to 187 °C. In the case of `Cc1cnn(-c2ccc(C(=O)N3Cc4cccn4Cc4ccccc43)cc2)c1` it was 179 to 181 °C.

Take `C=CCN1C(=O)CC(=O)N(c2ccccc2)c2cc(Cl)ccc21`: the melting point lay within 199 to 201 °C.

`Cn1cc(-c2ccc(F)cc2)nc1SCCSc1nc(-c2ccc(F)cc2)c(-c2ccc(F)cc2)[nH]1` had a melting point of 202 to 205 °C. On to `CCOC(=O)C=C(NNc1c(C)cc(C)c([N+](=O)[O-])c1C)OC`, for which the melting point is 82 to 83 °C. `CC1=C(C(=O)N(c2ccccc2)C2CCCCCC(F)C2)CCO1` (stereo not given) returned a melting point of 91 °C.

For the compound `OC1CSC(Oc2cncc(-c3ccc(F)c(Cl)c3)c2)C(O)C1O` (stereo not given), the melting point fell in the range of 200 to 201 °C. In the case of `CCOC(=O)c1ncn2c1[C@@H]1CCN1C(=O)c1c-2cccc1C(F)(F)F` it was 183 to 184 °C. Next, `CN1CCN(c2c(F)c(N)c3c(=O)c(C(=O)O)cn(C4CC4)c3c2F)CCC1=O`: 281 to 283 °C. In the case of `Cc1c(NC(=O)c2ccc(OCCCC(F)(F)F)cc2F)ccc2cc(CN3CCCC3)cnc12` it was 148 °C; in that of `COc1ccc(NN)cc1F`, 46 to 50 °C. For the compound `Cc1ccc(NC(=O)c2ccc(O)c([N+](=O)[O-])c2)cc1C`, the melting point was in the range of 209 to 212 °C.

In the case of `O=C1Nc2c(cc([N+](=O)[O-])cc2[N+](=O)[O-])C1c1ncnc2nn(C3CCCC3)cc12` (stereo not given), the melting point was greater than 300 °C. In turn, `Cc1cc(C(C)(C)C)cc(C)c1SSc1c(C)cc(C(C)(C)C)cc1C` had a melting point of 127 to 128 °C.

The compound `O=S(=O)(Nc1ccc2c(OCc3ccc(-c4ccc(C(F)(F)F)cc4)cc3F)cccc2c1)C(F)(F)F` came in with a melting point of 98 to 100 °C. On to `Cn1cc(-c2cncc(OC3SCC(O)C(O)C3O)c2)c(C(F)(F)F)n1` (stereo not given), for which the melting point is 210 °C.

`CCOC(=O)N1C=CSC1C1=C(C)N=CC(OC)(OC)S1` (stereo not given) returned a melting point of 148 to 149 °C.

Turning to `NC(=O)Cc1cccc(C(=O)c2ccc(Cl)cc2)c1N`, the melting point was 212 to 215 °C. Next, `Cc1oc(-c2ccco2)nc1COc1ccc(COc2nn(Cc3ccccc3)cc2C(=O)O)cc1Cl`: 191 to 192 °C; `Cn1c(=O)c2c(ncn2CCCN2CCC(NC(=O)c3ccc(F)cc3)CC2)n(C)c1=O`: 192 to 193 °C.

In turn, `CNC(=O)C1CCN(c2cc(-c3ccc(Cl)cc3)nc3ccc(F)cc23)CC1` gave a melting point of 279 °C. In turn, `Clc1ccc(OCC2CCCC(OC(CBr)c3ccc(Cl)cc3Cl)O2)c(Cl)c1` (stereo not given) returned a melting point of 104 to 105 °C. Next, `CC1(c2cc(-c3cccc(CC4SC(N5CCCC5)=NC4=O)c3)ccc2O)CCCCC1` (stereo not given): 109 to 110 °C; `CC(C)(C)c1ccc(-c2nc(COc3cccc4cc(NS(=O)(=O)C(F)(F)F)ccc34)co2)cc1`: 165 to 167 °C; `CCn1cnc2c(Nc3cccc(C(F)(F)F)c3)nc(NCCCO)nc21`: 136 to 137 °C. As to `CCCCc1oc2ccccc2c1C(=O)NCc1ccc2c(-c3ccccc3)c(O)ccc2c1`, the melting point was 72 °C.

As for `CCC1Cc2cc(NC(C)=O)ccc2C1=O` (stereo not given), the melting point is 154 to 155 °C.
